The results in this text go back to US6355669B1, “Retinoic acid agonists as preventive and therapeutic agents for nephritis” (Eisai Co., Ltd., priority 1997, dated 2002).

One may read the IC50 as the concentration at which inhibition is half-maximal.

The target in test [1] is T1, human RARα (Homo sapiens, UniProt P10276).
T1 sequence (P10276 1-462): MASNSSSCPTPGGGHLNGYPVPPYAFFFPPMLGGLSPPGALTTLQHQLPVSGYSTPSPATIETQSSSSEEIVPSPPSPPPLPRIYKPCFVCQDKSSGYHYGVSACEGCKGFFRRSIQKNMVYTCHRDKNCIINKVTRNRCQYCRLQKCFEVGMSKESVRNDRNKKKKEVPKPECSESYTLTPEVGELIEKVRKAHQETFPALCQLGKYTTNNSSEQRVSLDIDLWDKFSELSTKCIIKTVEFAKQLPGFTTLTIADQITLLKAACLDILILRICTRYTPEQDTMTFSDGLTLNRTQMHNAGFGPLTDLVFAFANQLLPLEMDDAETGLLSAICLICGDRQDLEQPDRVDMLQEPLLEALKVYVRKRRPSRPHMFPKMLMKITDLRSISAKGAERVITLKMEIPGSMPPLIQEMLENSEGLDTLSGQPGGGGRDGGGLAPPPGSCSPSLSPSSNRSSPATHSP
The experiment in a line: RAR binding assay (inhibition of 3H-all-trans-retinoic acid binding), RAR-α. More on the design: expressed in transfected cells. As to conditions: nuclear extract of BHK cells expressing human RARα, read-out: Receptor binding assay IC50 (nM) RAR-α. Here is the method: (§1) Cells constantly expressing RARα, β and γ proteins were prepared by introducing human RARα, β and γ genes into BHK (baby hamster kidney) cells. A nuclear fraction of these cells was used to construct an experimental system for measuring the specific binding of all-trans-retinoic acid to RAR, and in this experimental system, the ability of each test compound to bind to […] was examined by measuring the degree of inhibition of binding. Further, the ability of each test compound to bind to each receptor subtype was compared to determine the selectivity of the compound for RAR subtype.
(§2) 5×10^8 BHK cells having the RAR gene introduced into them were suspended in 15 ml solution A (5 mM sodium phosphate (pH 7.4), 10 mM monothioglycerol, 10% (v/v) glycerol, 1 mM phenyl methyl sulfonyl fluoride (PMSF), 10 μg/ml aprotinin, 25 μg/ml leupeptin), then homogenized therein and centrifuged, and the supernatant was removed. The resulting pellet was suspended in 15 ml buffer B (10 mM Tris-HCl (pH 8.5), 10 mM monothioglycerol, 10% (v/v) glycerol, 1 mM PMSF, 10 μg/ml aprotinin, 25 μg/ml leupeptin, 0.4 M potassium chloride), then left at 4° C. for 1 hour and ultracentrifuged at 100,000×g, 4° C. for 1 hour. The resulting supernatant was frozen and stored as a nuclear extract fraction at −80° C. until use (Methods in Enzymology, 189, 248).
(§3) 180 μl of the extract fraction and 10 μl diluted solution of all-trans-retinoic acid or a test compound were added to each well on a 96-well plate made of polypropylene, and further 10 μl of 10 nM ^3H-all-trans-retinoic acid was added thereto and left at 4° C. for 16 hours. 3% charcoal-0.3% dextran solution was added to the reaction solution and centrifuged whereby free ^3H-all-trans-retinoic acid was separated, and the count in the supernatant was determined by a scintillation counter. The count when a 500-fold excess of non-labeled all-trans-retinoic acid was added was subtracted as unspecific binding from the value obtained, to determine the amount of each compound binding specifically to RAR.
(§4) The concentration (IC50) of each compound at which the binding of ^3H-all-trans-retinoic acid was inhibited by 50% was determined and the results are shown in Tables 3-1 and 3-2.

Test [2] concerns the target T2, human RARγ (Homo sapiens, UniProt P13631).
T2 sequence (P13631 1-454): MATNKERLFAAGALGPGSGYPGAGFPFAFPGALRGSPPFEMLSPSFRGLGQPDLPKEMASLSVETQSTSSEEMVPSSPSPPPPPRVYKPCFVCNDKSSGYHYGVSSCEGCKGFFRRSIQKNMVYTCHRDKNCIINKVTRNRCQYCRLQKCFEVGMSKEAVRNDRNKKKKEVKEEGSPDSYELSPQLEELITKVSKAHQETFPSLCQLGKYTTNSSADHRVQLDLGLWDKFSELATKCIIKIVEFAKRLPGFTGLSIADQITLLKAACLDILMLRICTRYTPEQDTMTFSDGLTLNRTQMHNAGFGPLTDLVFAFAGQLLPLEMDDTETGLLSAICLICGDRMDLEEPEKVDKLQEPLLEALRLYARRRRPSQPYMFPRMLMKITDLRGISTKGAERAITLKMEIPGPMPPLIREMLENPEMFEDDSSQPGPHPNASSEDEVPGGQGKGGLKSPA
The experiment in a line: RAR binding assay (inhibition of 3H-all-trans-retinoic acid binding), RAR-γ. The note with it: nuclear extract of BHK cells expressing human RARγ, read-out: Receptor binding assay IC50 (nM) RAR-γ. Also noted: expressed in transfected cells. Here is the method:
as §1, §2, §3, §4

For test [3], the target named is T3, human RARβ (Homo sapiens, UniProt P10826).
T3 sequence (P10826 1-455): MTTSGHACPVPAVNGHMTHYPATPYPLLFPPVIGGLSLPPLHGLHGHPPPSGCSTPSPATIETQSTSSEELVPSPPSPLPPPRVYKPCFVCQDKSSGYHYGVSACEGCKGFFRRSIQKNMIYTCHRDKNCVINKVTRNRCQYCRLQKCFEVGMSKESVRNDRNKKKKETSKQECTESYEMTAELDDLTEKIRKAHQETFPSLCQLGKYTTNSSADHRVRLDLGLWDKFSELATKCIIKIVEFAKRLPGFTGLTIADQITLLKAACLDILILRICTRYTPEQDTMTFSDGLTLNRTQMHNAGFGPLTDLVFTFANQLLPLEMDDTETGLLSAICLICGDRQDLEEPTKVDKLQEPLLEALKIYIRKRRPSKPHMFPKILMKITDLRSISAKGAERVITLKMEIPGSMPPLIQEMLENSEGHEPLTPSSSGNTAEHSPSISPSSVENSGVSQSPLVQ
As to the kind of experiment: RAR binding assay (inhibition of 3H-all-trans-retinoic acid binding), RAR-β. Also noted: expressed in transfected cells. As to conditions: nuclear extract of BHK cells expressing human RARβ, read-out: Receptor binding assay IC50 (nM) RAR-β. As for the experimental part:
as §1, §2, §3, §4

The subject of test [4] is anti-dinitrophenyl (DNP) IgG2a antibody titer. As to the kind of experiment: Mouse model producing antibody (anti-DNP IgG2a antibody titer in serum, ELISA). It is filed as in vivo, BALB/c mice. As to conditions: for effect on anti-DNP IgG2a: dose 0.1 mg/kg oral once every day for 10 days, 10th day after immunization. As for the experimental part:
BALB/c mice were immunized by administering dinitrophenylated keyhole limpet hemocyanin (DNP-KLH) as antigen intraperitoneally into them in a dose of 100 μg/mouse along with Freund's complete adjuvant. On the 10th day after the day on which the mice were immunized, blood was collected from the orbital venous plexus of the animals under anesthesia with ether and examined for anti-dintrophenyl (DNP) IgG2a antibody titer in serum by the ELISA method.
The test compounds B, E, F, G and H were suspended in 0.5% aqueous methyl cellulose solution and orally administered into the animals once every day for 10 days from the day when the animals were immunized with DNP-KLH. The medium was administered into the control group.
On the technique in general: ELISA stands for enzyme-linked immunosorbent assay.

Test [5] deals with accelerated Masugi nephritis. The experiment in a line: Rat model with accelerated Masugi nephritis (proteins excreted in urine for 24 hours). The test is classed as in vivo, Sprague-Dawley strain rats. As to conditions: oral once every day, compared with the control group. Here is the method: Sprague-Dawley strain rats were immunized by subcutaneously administering rabbit γ-globulin in a dose of 4 mg/rat along with Freund's complete adjuvant into the bottoms of their both hind legs. On the 5th day after the rats were immunized, 1 ml of anti-rat glomerular basement membrane rabbit serum diluted 6- or 8-fold was administered via tail veins into the animals. On the 8th day, the rats were forced to be orally administered 8 ml sterilized water and then placed in a metabolism cage, and their urine was collected for 24 hours during which the animals were allowed neither food nor water. As the indicator of the model with accelerated Masugi nephritis, the amount of proteins excreted in urine for 24 hours was used.
The medium was administered into the control group.

Regarding `O=C(O)c1ccc(-c2ccc(-c3cc4c(Cl)ccc(Cl)c4o3)[nH]2)cc1`, the IC50 is 1 nM in test [1] and above 500 nM in test [2].
For `O=C(O)c1ccc(-c2ccc(-c3cc4c(F)ccc(Cl)c4o3)[nH]2)cc1`, the results for the IC50 in test [3], in test [1] and in test [2] were above 500 nM, 3.8 nM and above 500 nM, respectively.
On to `CC1(C)CCCc2ncc(-c3ccc(-c4ccc(C(=O)O)cc4)[nH]3)nc21` [Compound E, 4-{2-{5-[2-(8,8-dimethyl-5,6,7,8-tetrahydroquinoxalynyl)]pyrrolyl}}benzoic acid], for which, in test [4], the “effect on anti-DNP IgG2a” value is on record as “significantly inhibited”. Further, in test [5] (dose 1.0 mg/kg, 1 mg/kg), the “Degree of Inhibition of Albuminuria (%)” value amounted to 85.8%.
In the case of `CC1CCCN(C)c2ccc(-c3ccc(-c4ccc(C(=O)O)cc4)[nH]3)cc21` (centres unmarked) [Compound F, 4-{2-{5-[7-(1,5-dimethyl-2,3,4,5-tetrahydro-1H-benzazepinyl)]pyrrolyl}}benzoic acid], in test [4], the “effect on anti-DNP IgG2a” value is reported as “significantly inhibited”. Further, the “Degree of Inhibition of Albuminuria (%)” value in test [5] (dose 1.0 mg/kg, 1 mg/kg) worked out at 71.1%.
`COCc1cc2c(cc1-c1ccc(-c3ccc(C(=O)O)cc3)[nH]1)C(C)(C)CCC2(C)C` [Compound H, 4-{2-[5-(3-methoxymethyl-5,6,7,8-tetrahydro-5,5,8,8-tetramethylnaphthalene-2-yl)pyrrolyl}}benzoic acid]: the “effect on anti-DNP IgG2a” value in test [4] was “showed a tendency to inhibit”. Further, the “Degree of Inhibition of Albuminuria (%)” value in test [5] (dose 0.3 mg/kg, 0.3 mg/kg) is given as 61.3%.
`C[Si](C)(C)c1cc(C(=O)Nc2ccc(C(=O)O)cc2)cc([Si](C)(C)C)c1` [Compound I, 4-{[(3,5-bistrimethylsilylphenyl)carbonyl]amino}benzoic acid]: in test [5] (dose 1.0 mg/kg, 1 mg/kg), the “Degree of Inhibition of Albuminuria (%)” value was 89.4%.
With `CCn1nc(-c2ccc(-c3ccc(C(=O)O)cc3)[nH]2)cc1C(C)C` [G], the “effect on anti-DNP IgG2a” value in test [4] was “significantly inhibited”.
Regarding `Cc1ccc(C)c2oc(-c3ccc(-c4ccc(C(=O)O)cc4)[nH]3)cc12` [drawing 8], the results for the IC50 in test [3], in test [1] and in test [2] were 340 nM, 1.4 nM and above 500 nM, respectively.
With `O=C(O)c1ccc(-c2ccc(-c3cc4c(C(F)(F)F)ccc(F)c4o3)[nH]2)cc1` [drawing 11], the figures for the IC50 in test [3], in test [1] and in test [2] were 107 nM, 0.6 nM and 195 nM, respectively.
In the same order, the values of `Cc1ccc(C)c2c(F)c(-c3ccc(-c4ccc(C(=O)O)cc4)[nH]3)oc12` [drawing 12] are 49 nM, below 0.5 nM and 225 nM.
`CCc1ccc(C)c2cc(-c3ccc(-c4ccc(C(=O)O)cc4)[nH]3)oc12` [drawing 13]: the figures for the IC50 in test [3], in test [1] and in test [2] were 160 nM, below 0.5 nM and 270 nM, respectively.
`CC1(C)CCC(C)(C)c2nc(-c3ccc(-c4ccc(C(=O)O)cc4)[nH]3)cnc21` [drawing 14]: the IC50 in test [3] came to 56 nM; in test [1] it was 0.6 nM; in test [2], 140 nM.
Consider `CC1CCCN(C)c2ncc(-c3ccc(-c4ccc(C(=O)O)cc4)[nH]3)nc21` (centres unmarked) [drawing 16], for which the IC50 in test [3] is 58 nM; in test [1], 1 nM; in test [2], 130 nM.
Turning to `COCc1cc2c(cc1-c1ccc(-c3ccc(C(=O)O)cc3)[nH]1)C(C)(C)CCC2(C)C` [drawing 18], the IC50 in test [3] is 230 nM; in test [1], 10 nM; in test [2] it was 83 nM.
As for `C[Si](C)(C)c1cc(C(=O)Nc2ccc(C(=O)O)cc2)cc([Si](C)(C)C)c1` [drawing 19], the IC50 was above 500 nM in test [3], 6.4 nM in test [1] and above 500 nM in test [2].
On to `CCOC(=O)/C=C(C)/C=C/C=C(C)/C=C/c1c(C)cc(OC)c(C)c1C` [etretinate, reference compound], for which the “effect on production of anti-DNP antibody” value in test [4] (50 mg/kg, administered in the same manner as the test compounds) is given as “showed a tendency to inhibit”.
